Laboratory results taken from patent US20250041377A1, “PHARMACEUTICAL USE” (ENLITISA (SHANGHAI) PHARMACEUTICAL CO., LTD., priority 2018, published 2025).
Where a SMILES comes first, the peptide text is derived from it. [ ]: non-standard residue; d: D form. Hyp = O=C(O)[CH]1C[CH](O)CN1

Tests used:
closed comedones = assay: Cream to treat closed comedones; format: in vivo, human; conditions: cream 0.1 mg/g, morning and evening
Experimental: Compound B (10 mg; see Example 1 above) was first dissolved in WFI (10 g).
A mixture was then made comprising sorbitan stearate (2 g), cetyl alcohol (4 g), octanoic/capric glyceride (6 g) and glyceryl monostearate (3 g) (all Sinopharm Chemical Reagent Co. Ltd.), which was stirred and heated to 85° C. to melt the mixture completely.
Glycerin (5 g; Sinopharm Chemical Reagent Co. Ltd.) and ammonium acryloyldimethyltaurate/VP copolymer (0.13 g; Clariant Chemical (Guangzhou) Co., Ltd., China) were mixed with 68.86 g of WFI. This mixture was stirred and heated to 85° C. to provide a homogeneous colloidal suspension.
The copolymer/water mixture was added to the sorbitan stearate-containing mixture, which was then quickly stirred using emulsification equipment for 5 minutes. The resultant emulsion was cooled to room temperature.
The Compound B solution was then added to the resultant mixture with stirring to obtain the finished cream. The concentration of Compound B in the final cream was 0.1 mg/g.
Subjects with closed comedones (blocked pores) and in an acute attacking period of acne were enrolled in the study. Symptoms included sebaceous glands blocked by keratinocytes, forming a slightly hard lump and a protruding white head.
The cream was evenly smeared in the morning and evening after facial cleansing.

[1] = tested on: bleomycin-induced pulmonary fibrosis; assay: Idiopathic pulmonary fibrosis (IPF) model; format: in vivo, Sprague Dawley rats; design: lung coefficient: unit not given here
Experimental: Experimental animals and grouping: 40 adult male Sprague Dawley rats, after 7 days of adaptive feeding, were divided into 4 groups: sham-operation group (Sham), IPF model group (no treatment; Model), test group (Compound B) and positive control group (Positive Control).
The test were administered Compound B, at a dose of 130 μg/rat, which was introduced by aerosolized inhalation. Oral administration of pirfenidone (Etuary®, Beijing Continent Pharmaceutical Co., Ltd., Beijing, China) as a 120 mg/kg single-bolus dose served as the positive control.
A pulmonary fibrosis model was established by intratracheal instillation of bleomycin. The rats were anaesthetised and placed on an operating table in the supine position, to expose the trachea. Bleomycin (5 mg/kg) saline solution was injected into the trachea through the gap between the tracheal cartilage rings. The sham-operation group were given an equal volume of normal saline. Shortly after administration, the rats were lifted vertically and were rotated, in order to evenly disperse the drug. Once the rats had recovered, after approximately 5 days, they were administrated the different drugs according to the plan for 28 days, consecutively.
The exhaust volume of the atomizing device was 0.15 mL per minute. The inhalation time for each rat was 1 minute.
At Day 29 following drug administration, rats were anesthetized by i.p. injection of chloral hydrate. After orbital blood collection, the rats were sacrificed. The thoracic cavity was quickly opened and the lung was collected for further analysis. The lung wet weight was measured, and the lung coefficient was calculated (lung wet weight/rat weight×1000). The tissue was stored in refrigerator at −80° C. for further use.
A piece of lung tissue was accurately weighed, and 9 times the weight of saline was added. Then, the tissue was homogenized and centrifuged for 10 minutes at 3000 rpm. The homogenate was used to detect the expression of the transformation growth factor (TGF-β1), tumor necrosis factor-α (TNF-α) and alpha-smooth muscle actin (α-SMA). Standard ELISA methods were used for the detection. The contents of malonaldehyde (MDA) and the activity of superoxide dismutase (SOD) in lung tissue were also detected.

[2] = lung tissue homogenate, Day 29, Compound B 130 μg/rat aerosolized inhalation, pirfenidone gavage, 28 days

CC(N)C(=O)NC(CCCCN)C(=O)N1CCCC1C(=O)NC(CO)C(=O)NC(Cc1ccc(O)cc1)C(=O)N1CC(O)CC1C(=O)N1CC(O)CC1C(=O)NC(C(=O)NC(Cc1ccc(O)cc1)C(=O)NC(CCCCN)C(=O)O)C(C)O (stereo not drawn) [Compound B, Ala-Lys-Pro-Ser-Tyr-Hyp-Hyp-Thr-Tyr-Lys] (H-AKPSY[Hyp][Hyp]TYK-OH; configuration not given here)
lumps of closed comedones (closed comedones): disappeared after 1 day of use
inhibition of production of TNF-α, α-SMA and TGF-β1 in lung tissue ([1]; compared with pirfenidone): almost equivalent to that of the known IPF drug, pirfenidone
TGF-β1 [1, 2]: 0.40 ± 0.02 ng/mg protein
TNF-α [1, 2]: 187.91 ± 12.20 pg/mg protein
α-SMA [1, 2]: 10.85 ± 1.42 pg/mg protein
MDA ([1]; lung tissue, Day 29): 0.17 ± 0.04 U/mg protein
SOD ([1]; lung tissue, Day 29): 48.64 ± 1.85 U/mg protein
lung coefficient ([1]; lung wet weight/rat weight×1000, Day 29): 5.14 ± 0.37
